Starred links: 1 amine or outer side, 2 acyl side, 3 side chain; linkers in the order of their positions; H or OH if unused. Non-standard residues stand in square brackets, D forms with d. Residues, ends and D or L forms follow the SMILES beside them. Groups on a side chain read outwards from the residue. *: point of attachment. dAla(4-thiazolyl) = N[C@H](Cc1cscn1)C(=O)O; dPhe(4-Cl) = N[C@H](Cc1ccc(Cl)cc1)C(=O)O; d1Nal = N[C@H](Cc1cccc2ccccc12)C(=O)O; d2Nal = N[C@H](Cc1ccc2ccccc2c1)C(=O)O; dLys(iPr) = CC(C)NCCCC[C@@H](N)C(=O)O; d(hCit) = NC(=O)NCCCC[C@@H](N)C(=O)O; Lys(iPr) = CC(C)NCCCC[C@H](N)C(=O)O; NMeY = CN[C@@H](Cc1ccc(O)cc1)C(=O)O; dBta = N[C@H](Cc1csc2ccccc12)C(=O)O; Piperazinyl(4-Me) = CN1CCN(*)CC1; d3Pal = N[C@H](Cc1cccnc1)C(=O)O; Cha = N[C@@H](CC1CCCCC1)C(=O)O; d2Thi = N[C@H](Cc1cccs1)C(=O)O; NMeL = CN[C@@H](CC(C)C)C(=O)O; Nicotinoyl = O=C(c1cccnc1)*; NMeS = CN[C@@H](CO)C(=O)O; CO = O=C([*:1])[*:2]; Sar = CNCC(=O)O
How the values were obtained:
LHRH receptors = biological target: T1, LHRH receptors (Rattus norvegicus, UniProt P30969); experiment: Radioligand receptor binding assay, rat pituitary membranes; settings: radioiodinated [D-Leu6-des Gly10]-LHRH ethyl amide 50 pM, 2 hours at 4° C., read-out: Receptor Binding pkI (converted)
T1 sequence (P30969 1-327): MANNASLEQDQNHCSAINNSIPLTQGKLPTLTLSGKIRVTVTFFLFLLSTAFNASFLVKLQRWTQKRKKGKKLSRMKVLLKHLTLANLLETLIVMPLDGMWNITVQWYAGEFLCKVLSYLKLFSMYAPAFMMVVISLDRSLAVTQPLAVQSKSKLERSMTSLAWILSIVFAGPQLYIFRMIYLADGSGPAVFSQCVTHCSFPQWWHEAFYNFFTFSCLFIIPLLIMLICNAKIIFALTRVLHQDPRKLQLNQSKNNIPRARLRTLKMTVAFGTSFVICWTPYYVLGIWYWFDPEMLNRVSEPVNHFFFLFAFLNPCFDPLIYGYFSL
Method: The radioligand (50 pM), receptors, and compounds to be tested are coincubated for 2 hours at 4° C. Bound ligand is separated from free ligand via centrifugation and aspiration.

[1] = system: LH concentration in the blood; experiment: In vivo LH inhibition in male castrate rats; set-up: species or system rat; settings: AUC of log(LHt/LHi) over 24 hours, 30 ug/kg subcutaneous bolus
Method: The compound to be tested is administered at 30 μg/kg subcutaneously by bolus injection to male castrate rats and blood samples are collected periodically over 24 hours. The AUC (area under the curve) of the LH supression data as a function of time is calculated using the formula log (LHt /LHi) wherein LHt is the LH concentration in the blood at time t and LHi is the initial baseline value for the concentration of LH in the blood. The AUC values are negative numbers.

Row | SMILES | Ki (LHRH receptors) | AUC (24 hr. after 30 ug/kg) [1]
1 | CC(=O)N[C@H](Cc1ccc2ccccc2c1)C(=O)N[C@H](Cc1ccc(Cl)cc1)C(=O)N[C@H](Cc1cccnc1)C(=O)N(C)[C@@H](CO)C(=O)N[C@@H](CCCCNC(=O)c1cccnc1)C(=O)N[C@H](CCCCNC(=O)c1cccnc1)C(=O)N[C@@H](CC(C)C)C(=O)N[C@@H](CCCCNC(C)C)C(=O)N1CCC[C@H]1C(=O)N[C@H](C)C(N)=O [Ex. 35, N-Ac-D-2-Nal-D-4-Cl-Phe-D-3-Pal-N-Me-Ser-Lys-(N-epsilon-nicotinyl)-D-Lys-(N-epsilon-nicotinyl)-Leu-Lys-(N-epsilon-isopropyl)-Pro-D-AlaNH2] (Ac-[d2Nal][dPhe(4-Cl)][d3Pal][NMeS]K(Nicotinoyl)[dK](Nicotinoyl)L[Lys(iPr)]P[dA]-NH2) | 0.479 nM | -510
2 | CC(=O)N[C@H](Cc1ccc2ccccc2c1)C(=O)N[C@H](Cc1ccc(Cl)cc1)C(=O)N[C@H](Cc1cscn1)C(=O)N[C@@H](CO)C(=O)N(C)[C@@H](Cc1ccc(O)cc1)C(=O)N[C@H](CCCCNC(=O)c1cccnc1)C(=O)N[C@@H](CC(C)C)C(=O)N[C@@H](CCCCNC(C)C)C(=O)N1CCC[C@H]1C(=O)N[C@H](C)C(N)=O [Ex. 43, N-Ac-D-2-Nal-D-4-Cl-Phe-D-4-Thiaz-Ser-N-Me-Tyr-D-Lys-(N-epsilon-nicotinyl)-Leu-Lys(N-epsilon-isopropyl)-Pro-D-AlaNH2] (Ac-[d2Nal][dPhe(4-Cl)][dAla(4-thiazolyl)]S[NMeY][dK](Nicotinoyl)L[Lys(iPr)]P[dA]-NH2) | 0.0339 nM | -337
3 | CC(=O)N[C@H](Cc1ccc2ccccc2c1)C(=O)N[C@H](Cc1ccc(Cl)cc1)C(=O)N[C@H](Cc1cccnc1)C(=O)N[C@@H](CO)C(=O)N(C)[C@@H](Cc1ccc(O)cc1)C(=O)N[C@H](CCCCNC(=O)c1cccnc1)C(=O)N[C@@H](CC(C)C)C(=O)N[C@@H](CCCCNC(C)C)C(=O)N1CCC[C@H]1C(=O)N(C)CC(N)=O [Ex. 44, N-Ac-D-2-Nal-D-4-Cl-Phe-D-3-Pal-Ser-N-Me-Tyr-D-Lys(N-epsilon-nicotinyl)-Leu-Lys(N-epsilon-isopropyl)-Pro-SarNH2] (Ac-[d2Nal][dPhe(4-Cl)][d3Pal]S[NMeY][dK](Nicotinoyl)L[Lys(iPr)]P[Sar]-NH2) | 0.0331 nM | -571
4 | CC(=O)N[C@H](Cc1ccc(Cl)cc1)C(=O)N[C@H](Cc1ccc(Cl)cc1)C(=O)N[C@H](Cc1cccc2ccccc12)C(=O)N[C@@H](CO)C(=O)N(C)[C@@H](Cc1ccc(O)cc1)C(=O)N[C@H](CCCCN)C(=O)N[C@@H](CC(C)C)C(=O)N[C@@H](CCCNC(=N)N)C(=O)N1CCC[C@H]1C(=O)N[C@H](C)C(N)=O [Ex. 46, N-Ac-D-4-Cl-Phe-D-4-Cl-Phe-D-1-Nal-Ser-N-Me-Tyr-D-Lys-Leu-Arg-Pro-D-AlaNH2] (Ac-[dPhe(4-Cl)][dPhe(4-Cl)][d1Nal]S[NMeY][dK]LRP[dA]-NH2) | – | -1513
5 | CC(=O)N[C@H](Cc1ccc(Cl)cc1)C(=O)N[C@H](Cc1ccc(Cl)cc1)C(=O)N[C@H](Cc1cccc2ccccc12)C(=O)N[C@@H](CO)C(=O)N(C)[C@@H](Cc1ccc(O)cc1)C(=O)N[C@H](CCCCNC(N)=O)C(=O)N[C@@H](CC(C)C)C(=O)N[C@@H](CCCNC(=N)N)C(=O)N1CCC[C@H]1C(=O)N[C@H](C)C(N)=O [Ex. 59, N-Ac-D-4-Cl-Phe-D-4-Cl-Phe-D-1-Nal-Ser-N-Me-Tyr-D-H-Cit-Leu-Arg-Pro-D-AlaNH2] (Ac-[dPhe(4-Cl)][dPhe(4-Cl)][d1Nal]S[NMeY][d(hCit)]LRP[dA]-NH2) | 0.0977 nM | –
6 | CC(=O)N(C)CC(=O)N[C@H](Cc1ccc(Cl)cc1)C(=O)N[C@H](Cc1csc2ccccc12)C(=O)N[C@@H](CO)C(=O)N(C)[C@@H](Cc1ccc(O)cc1)C(=O)N[C@H](CCCCNC(=O)c1cccnc1)C(=O)N[C@@H](CC(C)C)C(=O)N[C@@H](CCCCNC(C)C)C(=O)N1CCC[C@H]1C(=O)N[C@H](C)C(N)=O [Ex. 64, N-Ac-Sar-D-4-Cl-Phe-D-3-Bal-Ser-N-Me-Tyr-D-Lys(N-epsilon-nicotinyl)-Leu-Lys(N-epsilon-isopropyl)-Pro-D-Ala-NH2] (Ac-[Sar][dPhe(4-Cl)][dBta]S[NMeY][dK](Nicotinoyl)L[Lys(iPr)]P[dA]-NH2) | 0.0102 nM | –

Second part, led by results:

Row | Ki (LHRH receptors) | SMILES | AUC (24 hr. after 30 ug/kg) [1]
7 | 0.0316 nM | CC(=O)N[C@H](Cc1ccc2ccccc2c1)C(=O)N[C@H](Cc1ccc(Cl)cc1)C(=O)N[C@H](Cc1cccnc1)C(=O)N[C@@H](CO)C(=O)N(C)[C@@H](Cc1ccc(O)cc1)C(=O)N[C@H](CCCCNC(=O)c1cccnc1)C(=O)N[C@@H](CC(C)C)C(=O)N[C@@H](CCCCNC(C)C)C(=O)N1CCC[C@H]1C(=O)N[C@H](C)C(N)=O [Ex. 38, N-Ac-D-2-Nal-D-4-Cl-Phe-D-3-Pal-Ser-N-Me-Tyr-D-Lys(N-epsilon-nicotinyl)-Leu-Lys(N-epsilon-isopropyl)-Pro-D-AlaNH2] (Ac-[d2Nal][dPhe(4-Cl)][d3Pal]S[NMeY][dK](Nicotinoyl)L[Lys(iPr)]P[dA]-NH2) | -1000
8 | 0.00871 nM | CC(=O)N[C@H](Cc1ccc(Cl)cc1)C(=O)N[C@H](Cc1ccc(Cl)cc1)C(=O)N[C@H](Cc1cccs1)C(=O)N[C@@H](CO)C(=O)N[C@@H](Cc1ccc(O)cc1)C(=O)N[C@H](CCCCN)C(=O)N[C@@H](CC(C)C)C(=O)N[C@@H](CCCNC(=N)N)C(=O)N1CCC[C@H]1C(=O)N(C)CC(N)=O [Ex. 58, N-Ac-D-4-Cl-Phe-D-4-Cl-Phe-D-2-Thia-Ser-Tyr-D-Lys-Leu-Arg-Pro-SarNH2] (Ac-[dPhe(4-Cl)][dPhe(4-Cl)][d2Thi]SY[dK]LRP[Sar]-NH2) | –
9 | 0.0229 nM | CC(=O)N[C@H](Cc1ccc(Cl)cc1)C(=O)N[C@H](Cc1ccc(Cl)cc1)C(=O)N[C@H](Cc1csc2ccccc12)C(=O)N[C@@H](CO)C(=O)N(C)[C@@H](Cc1ccc(O)cc1)C(=O)N[C@H](CCCCNC(C)C)C(=O)N[C@@H](CC(C)C)C(=O)N[C@@H](CCCNC(=N)N)C(=O)N1CCC[C@H]1C(=O)N[C@H](C)C(N)=O [Ex. 60, N-Ac-D-4-Cl-Phe-D-4-Cl-Phe-D-3-Bal-Ser-N-Tyr-D-Lys(N-epsilon-isopropyl)-Leu-Arg-Pro-D-AlaNH2] (Ac-[dPhe(4-Cl)][dPhe(4-Cl)][dBta]S[NMeY][dLys(iPr)]LRP[dA]-NH2) | –
10 | 0.049 nM | CC(=O)N[C@H](Cc1ccc2ccccc2c1)C(=O)N[C@H](Cc1ccc(Cl)cc1)C(=O)N[C@H](Cc1cccnc1)C(=O)N[C@@H](CO)C(=O)N(C)[C@@H](Cc1ccc(O)cc1)C(=O)N[C@H](Cc1cccnc1)C(=O)N[C@@H](CC(C)C)C(=O)N[C@@H](CCCCNC(C)C)C(=O)N1CCC[C@H]1C(=O)N[C@H](C)C(N)=O [Ex. 61, N-Ac-D-2-Nal-D-4-Cl-Phe-D-3-Pal-Ser-N-Me-Tyr-D-3-Pal-Leu-Lys(N-epsilon-isopropyl)-Pro-D-AlaNH2] (Ac-[d2Nal][dPhe(4-Cl)][d3Pal]S[NMeY][d3Pal]L[Lys(iPr)]P[dA]-NH2) | –
11 | 0.0141 nM | CC(=O)N[C@H](Cc1ccc2ccccc2c1)C(=O)N[C@H](Cc1ccc(Cl)cc1)C(=O)N[C@H](Cc1cccnc1)C(=O)N[C@@H](CO)C(=O)N(C)[C@@H](Cc1ccc(O)cc1)C(=O)N[C@H](CCCCNC(=O)c1cccnc1)C(=O)N[C@@H](CC1CCCCC1)C(=O)N[C@@H](CCCNC(=N)N)C(=O)N1CCC[C@H]1C(=O)N[C@H](C)C(N)=O [Ex. 66, N-Ac-D-2-Nal-D-4-Cl-Phe-D-3-Pal-Ser-N-Me-Tyr-D-Lys(N-epsilon-nicotinyl)-Cha-Arg-Pro-D-AlaNH2] (Ac-[d2Nal][dPhe(4-Cl)][d3Pal]S[NMeY][dK](Nicotinoyl)[Cha]RP[dA]-NH2) | –
12 | 0.12 nM | CC(=O)N[C@H](Cc1ccc(Cl)cc1)C(=O)N[C@H](Cc1ccc(Cl)cc1)C(=O)N[C@H](Cc1cccs1)C(=O)N[C@@H](CO)C(=O)N(C)[C@@H](Cc1ccc(O)cc1)C(=O)N[C@H](CCCCNC(=O)c1cccnc1)C(=O)N(C)[C@@H](CC(C)C)C(=O)N[C@@H](CCCNC(=N)N)C(=O)N1CCC[C@H]1C(=O)N[C@H](C)C(N)=O [Ex. 68, N-Ac-D-4-Cl-Phe-D-4-Cl-Phe-D-2-Thia-Ser-N-Me-Tyr-D-Lys(N-epsilon-nicotinyl)-N-Me-Leu-Arg-Pro-D-Ala-NH2] (Ac-[dPhe(4-Cl)][dPhe(4-Cl)][d2Thi]S[NMeY][dK](Nicotinoyl)[NMeL]RP[dA]-NH2) | –
13 | 0.012 nM | CC(=O)N[C@H](Cc1ccc2ccccc2c1)C(=O)N[C@H](Cc1ccc(Cl)cc1)C(=O)N[C@H](Cc1cccnc1)C(=O)N[C@@H](CO)C(=O)N(C)[C@@H](Cc1ccc(O)cc1)C(=O)N[C@H](CCCCNC(=O)N1CCN(C)CC1)C(=O)N[C@@H](CC(C)C)C(=O)N[C@@H](CCCCNC(C)C)C(=O)N1CCC[C@H]1C(=O)N[C@H](C)C(N)=O [Ex. 70, N-Ac-D-2--Nal-D-4-Cl-Phe-D-3-Pal-Ser-N-Me-Tyr-D-Lys(N-epsilon-CO-NMePip)-Leu-Lys(N-epsilon-isopropyl)-Pro-D-AlaNH2] (Ac-[d2Nal][dPhe(4-Cl)][d3Pal]S[NMeY][dK]([CO-Piperazinyl(4-Me)])L[Lys(iPr)]P[dA]-NH2) | –

Reference: patent US5110904A (Abbott Laboratories, priority 1990, dated 1992)
